Read-outs that look alike come from different tables or passages of the source.
How the values were obtained:
[1] = tested on: influenza A/HK/68; format: in vivo, ICR mice; conditions: mouse, in vivo
[2] = Fever response in rabbits (pyrogenicity); format: in vivo; conditions: 10 ug/kg; cumulative rise ≥1.5 degree in three rabbits is considered pyrogenic
Method: The AGP compounds were also evaluated for their tendency to induce a fever response in rabbits. Each compound was formulated in 10% (v/v) ethanol/water solution at 100 mg/ml, then diluted with D5W to the desired concentration. The material was injected at 3 ml/kg body weight into 3 rabbits. The rise in core temperature of the rabbits was recorded.

[3] = tested on: hepatitis B surface antigen (HBsAg); conditions: for % Cytotoxicity (d16, post 2°): HBsAg + 10 μg AGP-AF intranasally; for % Cytotoxicity (d8, post 3°): intranasal HBsAg + 10 μg AGP-AF
[4] = tested on: E.G7 (OVA) cells; conditions: s.c. 25 μg OVA in AGP preparation, spleen cells 21 days later
[5] = tested on: influenza A/HK/68; parameters: species or system ICR mice; conditions: mouse, in vivo
[6] = tested on: hepatitis B surface antigen (HBsAg); assay: Vaginal wash anti-HBsAg antibody after intranasal HBsAg + AGP-AF; format: in vivo, BALB/c mice; conditions: 10 days after the booster immunization; intranasal HBsAg + 10 μg AGP-AF
Source text: Vaginal samples were collected 10 days after the booster immunization and assayed for anti-HBsAg antibody.

[7] = tested on: hepatitis B surface antigen (HBsAg); assay: Serum anti-HBsAg antibody titers after intranasal HBsAg + AGP-AF (ELISA); format: in vivo, BALB/c mice; conditions: for Anti HBsAg Titer^−1 IgG1 / Anti HBsAg Titer^−1 IgG2a: K = 10^3
[8] = day 22 post 2°, HBsAg + 10 μg AGP-AF intranasally
[9] = serum, day 21 post 3°, intranasal HBsAg + 10 μg AGP-AF

Substance | Percent Survival [1] | Titer−1 IgG1 [1] | Titer−1 IgG2a [1] | Titer−1 IgG2b [1] | Titer−1 Total IgG [1] | PYROGENICITY Total Rise ° C., 3 rabbits [2] | % Cytotoxicity (d16, post 2°) ([3]; E/T 6.25:1) | % Cytotoxicity (d8, post 3°) ([3]; E/T 6.25:1) | % Cytotoxicity (d16, post 2°) ([3]; E/T 12.5:1) | % Cytotoxicity (d8, post 3°) ([3]; E/T 12.5:1) | % Cytotoxicity (d16, post 2°) ([3]; E/T 25:1) | % Cytotoxicity (d8, post 3°) ([3]; E/T 25:1) | % Cytotoxicity (d16, post 2°) ([3]; E/T 50:1) | % Cytotoxicity (d8, post 3°) ([3]; E/T 50:1) | % Cytotoxicity ([4]; E:T 12.5:1) | % Cytotoxicity ([4]; E:T 25:1) | % Cytotoxicity ([4]; E:T 50:1) | IgG Titer-1 post 1° [5] | IgG Titer-1 post 2° [5] | Percent Survival post 1° [5] | other results
3-Hydroxy-(S)-2-[(R)-3-decanoyloxytetradecanoylamino]propyl 2-Deoxy-4-O-phosphono-2-[(R)-3-decanoyloxytetradecanoylamino]-3-O-[(R)-3-decanoyloxytetradecanoyl]-β-D-glucopyranoside Triethylammonium Salt [B5] | 44% | 200 | 50 | 400 | 800 | 4.1 °C | 11% | 12% | 20% | 19% | 30% | 30% | 43% | 44% | 11% | 18% | 28% | 1600 | >102,400 | 60% | Percent Survival post 2° [5]: 90%; Vaginal Wash Anti-HBsAg Titer^−1 IgA [6]: 1600; Vaginal Wash Anti-HBsAg Titer^−1 IgG [6]: 1600; Anti HBsAg Titer^−1 IgA [7, 8]: 3,200; Anti HBsAg Titer^−1 IgG1 [7, 8]: 256K; Anti HBsAg Titer^−1 IgG2a [7, 8]: 500K; Anti HBsAg Titer^−1 IgG1 [7, 9]: 500K; Anti HBsAg Titer^−1 IgG2a [7, 9]: 1000K; Anti HBsAg Titer^−1 IgA [7, 9]: 12,800
3-Hydroxy-(S)-2-[(R)-3-undecanoyloxytetradecanoylamino]propyl 2-Deoxy-4-O-phosphono-2-[(R)-3-undecanoyloxytetradecanoylamino]-3-O-[(R)-3-undecanoyloxytetradecanoyl]-β-D-glucopyranoside Triethylammonium Salt [B4] | 60% | 400 | 100 | 1600 | 3200 | 3.4 °C | 7% | 5% | 9% | 9% | 17% | 15% | 28% | 23% | 60% | 66% | 72% | 800 | 25,600 | 50% | Percent Survival post 2° [5]: 70%; Vaginal Wash Anti-HBsAg Titer^−1 IgA [6]: 6400; Vaginal Wash Anti-HBsAg Titer^−1 IgG [6]: 1600; Anti HBsAg Titer^−1 IgA [7, 8]: 6,400; Anti HBsAg Titer^−1 IgG1 [7, 8]: 500K; Anti HBsAg Titer^−1 IgG2a [7, 8]: 1000K; Anti HBsAg Titer^−1 IgG1 [7, 9]: 1000K; Anti HBsAg Titer^−1 IgG2a [7, 9]: 2000K; Anti HBsAg Titer^−1 IgA [7, 9]: 25,600

From patent US7541020B2, “Aminoalkyl glucosaminide phosphate compounds and their use as adjuvants and immunoeffectors” (priority 1997, dated 2009)
